Measured values published in patent US9505765B2, “4-alkoxy/aralkoxy-5-substituted-pyrrolopyrimidine compounds as TAK1 inhibitors in disease treatment” (Confluence Life Sciences Inc., priority 2012, dated 2016).

Molecular target: TAK1-TAB1 (Homo sapiens (Human), UniProt O43318)
Assay: TAK1-TAB1 competitive binding assay (LanthaScreen), without pre-incubation
Conditions: 10 nM TAK1-TAB1, 100 nM kinase tracer-236, read-out: TAK1-TAB1 Inhibition IC50
From the text: TAK1-TAB1 Binding Inhibitory Potency: The ability of candidate compounds to interact with TAK1-TAB1 is quantitated by a competitive binding assay using the LanthaScreen technology developed by Life Technologies. This assay is based on the binding of a proprietary, Alexa Fluor® 647-labeled, ATP-competitive kinase inhibitor (kinase tracer-236) to the TAK1-TAB1 construct in presence of a europium-conjugated antibody, resulting in a FRET (fluorescence resonance energy transfer) signal. Displacement of the kinase tracer by compound results in a lower emission ratio upon excitation of the europium chelate. Candidate compounds are designed as potential irreversible inhibitors of TAK1-TAB1, capable of ligating to an active site cysteine residue. The time dependent nature of irreversible inhibition is investigated by performing the binding assay with and without a pre-incubation of compound and TAK1-TAB1.
The inhibitory potency of candidate compounds is measured in 20 mM HEPES pH 7.5, 10 mM MgCl2, 0.01% BSA, 0.0005% Tween-20, and 2% DMSO in the presence of 10 nM TAK1-TAB1, 2 nM Eu-anti-his antibody, and 100 nM kinase tracer-236 using a 384-well plate format. Background signal is defined in the absence of TAK1-TAB1 and uninhibited signal is defined in the presence of vehicle (2% DMSO) alone. Compounds were evaluated in an 11 point dose-response ranging from 20 μM to 0.34 nM. The binding assays are performed under two conditions to evaluate time dependence of inhibition. For the pre-incubation assay, TAK1-TAB1 and Eu-anti-his antibody are preincubated with compound or vehicle for two hours prior to the addition of kinase tracer. The non-preincubated assay is run in which TAK1-TAB1 and Eu-anti-his antibody are added to a mixture of compound and kinase tracer. IC50 values of compounds are determined using a 4 parameter logistical fit of emission ratio as a function of the concentration of compound.
Compounds were tested in accordance with the above described assay, without pre-incubation, yielding the values described below: […]

Chain of TAK1-TAB1 (O43318 other isoform, or with tags, fused parts or gaps): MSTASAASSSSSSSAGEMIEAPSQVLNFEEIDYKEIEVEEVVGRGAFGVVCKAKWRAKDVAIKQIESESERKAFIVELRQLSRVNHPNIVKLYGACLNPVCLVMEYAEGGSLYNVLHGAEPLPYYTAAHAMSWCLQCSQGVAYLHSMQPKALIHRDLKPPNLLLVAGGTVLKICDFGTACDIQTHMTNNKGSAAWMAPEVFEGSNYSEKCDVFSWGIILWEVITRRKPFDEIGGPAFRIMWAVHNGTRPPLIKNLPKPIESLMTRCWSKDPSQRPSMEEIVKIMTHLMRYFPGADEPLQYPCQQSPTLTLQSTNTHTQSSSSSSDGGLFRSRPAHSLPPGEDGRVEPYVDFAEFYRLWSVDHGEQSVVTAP

Structure (SMILES) | IC50 [nM]
CC(C)(C)COc1ncnc2[nH]cc(/C=C/C(N)=O)c12 [Example 192, (E)-3-(4-(neopentyloxy)-7H-pyrrolo[2,3-d]pyrimidin-5-yl)acrylamide] | 5.2
CC(C)(O)COc1ncnc2[nH]cc(/C=C/C(N)=O)c12 [Example 193, (E)-3-(4-(2-hydroxy-2-methylpropoxy)-7H-pyrrolo[2,3-d]pyrimidin-5-yl)acrylamide] | 75
CC(C)(C)Oc1ncnc2[nH]cc(/C=C/C(N)=O)c12 [Example 195, (E)-3-(4-(tert-butoxy)-7H-pyrrolo[2,3-d]pyrimidin-5-yl)acrylamide] | 13
CC(C)COc1ncnc2[nH]cc(/C=C(\Cl)C(N)=O)c12 [Example 196, (Z)-2-chloro-3-(4-isobutoxy-7H-pyrrolo[2,3-d]pyrimidin-5-yl)acrylamide] | 360
C=C(C#N)c1c[nH]c2ncnc(OCC(C)C)c12 [Example 197, 2-(4-isobutoxy-7H-pyrrolo[2,3-d]pyrimidin-5-yl)acrylonitrile] | 750
CC(C)COc1ncnc2[nH]cc(C/C=C/C(N)=O)c12 [Example 198, 4-(4-isobutoxy-7H-pyrrolo[2,3-d]pyrimidin-5-yl)-but-2-enoic acid amide] | 420
NC(=O)/C=C/c1c[nH]c2ncnc(OC3CCC(F)(F)CC3)c12 [Example 199, 3-[4-(4,4-difluoro-cyclohexyloxy)-7H-pyrrolo[2,3-c]pyrimidin-5-yl]-acrylamide] | 16
COC(=O)/C=C/c1c[nH]c2ncnc(OCc3ccccc3)c12 [Example 201, (E)-3-(4-benzyloxy-7H-pyrrolo[2,3-d]pyrimidin-5-yl)-acrylic acid methylester] | 350

Test system: A549 cells
Assay: IL-1β stimulated IL-6 Production in A549 cells
Type: cell-based
Conditions: Homo sapiens, 1 ng/ml rhIL1β, 18 hrs, read-out: IL-6 Production IC
Description: IL-1β stimulated IL-6 Production in A549 cells: The cellular efficacy of compound candidates is determined using the human lung epithelial cell line A549 (ATCC #CCL-185), based upon the methods of Wheeler et al. (2004) J. Nutrition 134, 1039-1044, and Eda et al. (2011) Cell Biol. Int. 35, 355-358. A549 cells produce a number of cytokines (IL6, IL8 and TNFα) in response to stimulation with IL1β. To induce the production of inflammatory mediators, A549 cells are plated at a final concentration of 3×10^5 cells/well of a 96 well flat bottom plate in F12-K medium supplemented with 10% fetal bovine serum, 100 units/ml penicillin and 100 μg/ml streptomycin (Gibco BRL Life Technologies). Cells are treated with or without inhibitors for 3 hrs then stimulated with 1 ng/ml rhIL1β (R & D Systems) for an additional 18 hrs at 37° C. with 5% CO2. The supernatants are removed and stored at −20° C. until they are to be assayed. The levels of inflammatory mediators are determined using commercial MSD cytokine kits (Meso Scale Discovery) as per the manufacturer's instructions. Standard curves are based on 7 steps of 4× serial dilutions, with a wide dynamic range of 10000 pg/ml to 2.4 pg/ml, and the blank in triplicate. Lower limit of detection (LLOD) is calculated at the commonly used 3× the standard deviation of the blank.
Compounds were tested in accordance with the above described assay, yielding the values described below: […]

Structure (SMILES) | IC50 [nM]
CC(C)(C)COc1ncnc2[nH]cc(/C=C/C(N)=O)c12 [Example 192, (E)-3-(4-(neopentyloxy)-7H-pyrrolo[2,3-d]pyrimidin-5-yl)acrylamide] | 78
CC(C)(O)COc1ncnc2[nH]cc(/C=C/C(N)=O)c12 [Example 193, (E)-3-(4-(2-hydroxy-2-methylpropoxy)-7H-pyrrolo[2,3-d]pyrimidin-5-yl)acrylamide] | 1200
CC(C)(C)Oc1ncnc2[nH]cc(/C=C/C(N)=O)c12 [Example 195, (E)-3-(4-(tert-butoxy)-7H-pyrrolo[2,3-d]pyrimidin-5-yl)acrylamide] | 920
CC(C)COc1ncnc2[nH]cc(/C=C(\Cl)C(N)=O)c12 [Example 196, (Z)-2-chloro-3-(4-isobutoxy-7H-pyrrolo[2,3-d]pyrimidin-5-yl)acrylamide] | 750
CC(C)COc1ncnc2[nH]cc(C/C=C/C(N)=O)c12 [Example 198, 4-(4-isobutoxy-7H-pyrrolo[2,3-d]pyrimidin-5-yl)-but-2-enoic acid amide] | 8400

Further lines, results first:

IC50 [nM] | Structure (SMILES)
180 | NC(=O)/C=C/c1c[nH]c2ncnc(OC3CCC(F)(F)CC3)c12 [Example 199, 3-[4-(4,4-difluoro-cyclohexyloxy)-7H-pyrrolo[2,3-c]pyrimidin-5-yl]-acrylamide]
800 | COC(=O)/C=C/c1c[nH]c2ncnc(OCc3ccccc3)c12 [Example 201, (E)-3-(4-benzyloxy-7H-pyrrolo[2,3-d]pyrimidin-5-yl)-acrylic acid methylester]

Same assay, conditions: Homo sapiens, 5 μM compound, 1 ng/ml rhIL1β, 18 hrs, read-out: IL-6 Production % Control 5 μM

Structure (SMILES) | activity at 5 µM [%]
CC(C)(C)COc1ncnc2[nH]cc(/C=C/C(N)=O)c12 [Example 192, (E)-3-(4-(neopentyloxy)-7H-pyrrolo[2,3-d]pyrimidin-5-yl)acrylamide] | 0
CC(C)(O)COc1ncnc2[nH]cc(/C=C/C(N)=O)c12 [Example 193, (E)-3-(4-(2-hydroxy-2-methylpropoxy)-7H-pyrrolo[2,3-d]pyrimidin-5-yl)acrylamide] | 22
CC(C)(C)Oc1ncnc2[nH]cc(/C=C/C(N)=O)c12 [Example 195, (E)-3-(4-(tert-butoxy)-7H-pyrrolo[2,3-d]pyrimidin-5-yl)acrylamide] | 19
CC(C)COc1ncnc2[nH]cc(/C=C(\Cl)C(N)=O)c12 [Example 196, (Z)-2-chloro-3-(4-isobutoxy-7H-pyrrolo[2,3-d]pyrimidin-5-yl)acrylamide] | 0
C=C(C#N)c1c[nH]c2ncnc(OCC(C)C)c12 [Example 197, 2-(4-isobutoxy-7H-pyrrolo[2,3-d]pyrimidin-5-yl)acrylonitrile] | 128
CC(C)COc1ncnc2[nH]cc(C/C=C/C(N)=O)c12 [Example 198, 4-(4-isobutoxy-7H-pyrrolo[2,3-d]pyrimidin-5-yl)-but-2-enoic acid amide] | 4
NC(=O)/C=C/c1c[nH]c2ncnc(OC3CCC(F)(F)CC3)c12 [Example 199, 3-[4-(4,4-difluoro-cyclohexyloxy)-7H-pyrrolo[2,3-c]pyrimidin-5-yl]-acrylamide] | 0
COC(=O)/C=C/c1c[nH]c2ncnc(OCc3ccccc3)c12 [Example 201, (E)-3-(4-benzyloxy-7H-pyrrolo[2,3-d]pyrimidin-5-yl)-acrylic acid methylester] | 26

Same assay, conditions: Homo sapiens, 50 μM compound, 1 ng/ml rhIL1β, 18 hrs, read-out: IL-6 Production % Control 50 μM

Structure (SMILES) | activity at 50 µM [%]
CC(C)(C)COc1ncnc2[nH]cc(/C=C/C(N)=O)c12 [Example 192, (E)-3-(4-(neopentyloxy)-7H-pyrrolo[2,3-d]pyrimidin-5-yl)acrylamide] | 0
CC(C)(O)COc1ncnc2[nH]cc(/C=C/C(N)=O)c12 [Example 193, (E)-3-(4-(2-hydroxy-2-methylpropoxy)-7H-pyrrolo[2,3-d]pyrimidin-5-yl)acrylamide] | 0
CC(C)(C)Oc1ncnc2[nH]cc(/C=C/C(N)=O)c12 [Example 195, (E)-3-(4-(tert-butoxy)-7H-pyrrolo[2,3-d]pyrimidin-5-yl)acrylamide] | 1
CC(C)COc1ncnc2[nH]cc(/C=C(\Cl)C(N)=O)c12 [Example 196, (Z)-2-chloro-3-(4-isobutoxy-7H-pyrrolo[2,3-d]pyrimidin-5-yl)acrylamide] | 0
C=C(C#N)c1c[nH]c2ncnc(OCC(C)C)c12 [Example 197, 2-(4-isobutoxy-7H-pyrrolo[2,3-d]pyrimidin-5-yl)acrylonitrile] | 75
CC(C)COc1ncnc2[nH]cc(C/C=C/C(N)=O)c12 [Example 198, 4-(4-isobutoxy-7H-pyrrolo[2,3-d]pyrimidin-5-yl)-but-2-enoic acid amide] | 0
NC(=O)/C=C/c1c[nH]c2ncnc(OC3CCC(F)(F)CC3)c12 [Example 199, 3-[4-(4,4-difluoro-cyclohexyloxy)-7H-pyrrolo[2,3-c]pyrimidin-5-yl]-acrylamide] | 0
COC(=O)/C=C/c1c[nH]c2ncnc(OCc3ccccc3)c12 [Example 201, (E)-3-(4-benzyloxy-7H-pyrrolo[2,3-d]pyrimidin-5-yl)-acrylic acid methylester] | 1
